Test results reported in patent publication US9034311B2, “Pyridin-2(1 H)-one derivatives as JAK inhibitors” (ALMIRALL, S.A., priority 2011, dated 2015).

What was measured:
Format in all cases: biochemical
[1] = target: T1, human JAK3 (aa 795-1124) catalytic domain (Homo sapiens, UniProt P52333); test: In vitro JAK kinase assay (TR-FRET), JAK3; conditions: ATP 0.6 μM, peptide 140 nM, 30 minutes at room temperature
T1 construct: JAK3 (aa 795-1124); purchased Carna Biosciences; host or cells: baculovirus expression system (insect cells)
T1 sequence (P52333 795-1124): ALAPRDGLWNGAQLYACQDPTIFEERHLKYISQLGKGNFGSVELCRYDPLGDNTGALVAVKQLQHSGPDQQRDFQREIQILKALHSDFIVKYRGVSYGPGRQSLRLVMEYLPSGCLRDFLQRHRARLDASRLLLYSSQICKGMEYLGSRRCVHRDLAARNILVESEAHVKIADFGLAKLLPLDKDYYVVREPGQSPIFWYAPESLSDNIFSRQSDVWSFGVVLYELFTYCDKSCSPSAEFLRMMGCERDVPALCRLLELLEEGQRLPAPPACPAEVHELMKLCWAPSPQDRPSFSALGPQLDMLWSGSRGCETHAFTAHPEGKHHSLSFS
Protocol: (§1) Compounds were screened for their ability to inhibit JAK1, JAK2 and JAK3 using the assays as indicated below.
(§2) The catalytic domains of human JAK1 (aa 850-1154), JAK2 (aa 826-1132), JAK3 (aa 795-1124) and Tyk2 (aa 871-1187) were expressed as N-terminal GST-fusion proteins using a baculovirus expression system and were purchased from Carna Biosciences. The enzymatic activity was assayed using as substrate a biotinylated peptide, poly (GT)-Biotin (CisBio). The peptide concentration in the reactions was 60 nM for JAK1, 20 nM for JAK2, 140 nM for JAK3 and 50 nM for Tyk2. The degree of phosphorylation was detected by TR-FRET (time-resolved fluorescence energy transfer).
(§3) IC50s of compounds were measured for each kinase in a reaction mixture containing the enzyme, ATP and the peptide in 8 mM MOPS (pH 7.0), 10 mM MgCl2, 0.05% β-mercaptoethanol, 0.45 mg/ml BSA. The ATP concentration in the reactions was 3 μM for JAK1, 0.2 μM for JAK2, 0.6 μM for JAK3 and 1.8 μM for Tyk2. The enzymatic reactions took place for 30 minutes at room temperature. Then, the reactions were stopped with 20 μL of quench detection buffer (50 mM HEPES, 0.5 M KF, EDTA 0.25 M, 0.1% (w/v) BSA, pH 7.5) containing 0.115 μg/mL of anti-phosphoTyr (PT66)-Cryptate (CisBio) and a variable concentration of SA-XL665 (CisBio) to keep the SA-B ratio constant. Incubate for 3 h and read on Victor 2V spectrofluorometer (Perkin Elmer) set to read fluorescence resonance energy transfer.

[2] = target: T2, human JAK2 (aa 826-1132) catalytic domain (Homo sapiens, UniProt O60674); test: In vitro JAK kinase assay (TR-FRET), JAK2; conditions: ATP 0.2 μM, peptide 20 nM, 30 minutes at room temperature
T2 construct: JAK2 (aa 826-1132); purchased Carna Biosciences; host or cells: baculovirus expression system (insect cells)
T2 sequence (O60674 826-1132): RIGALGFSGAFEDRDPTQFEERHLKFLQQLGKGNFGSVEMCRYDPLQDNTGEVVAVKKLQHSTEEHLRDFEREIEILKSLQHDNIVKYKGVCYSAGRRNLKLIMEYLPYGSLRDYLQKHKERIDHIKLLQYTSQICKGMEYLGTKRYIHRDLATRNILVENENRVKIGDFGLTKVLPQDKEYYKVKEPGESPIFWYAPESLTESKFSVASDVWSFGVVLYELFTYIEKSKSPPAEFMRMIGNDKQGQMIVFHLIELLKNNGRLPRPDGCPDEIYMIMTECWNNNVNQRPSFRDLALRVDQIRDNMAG
Protocol: as §1, §2, §3

[3] = target: T3, human JAK1 (aa 850-1154) catalytic domain (Homo sapiens, UniProt P23458); test: In vitro JAK kinase assay (TR-FRET), JAK1; conditions: ATP 3 μM, peptide 60 nM, 30 minutes at room temperature
T3 construct: human JAK1 (aa 850-1154); purchased Carna Biosciences; host or cells: baculovirus expression system (insect cells)
T3 sequence (P23458 850-1154): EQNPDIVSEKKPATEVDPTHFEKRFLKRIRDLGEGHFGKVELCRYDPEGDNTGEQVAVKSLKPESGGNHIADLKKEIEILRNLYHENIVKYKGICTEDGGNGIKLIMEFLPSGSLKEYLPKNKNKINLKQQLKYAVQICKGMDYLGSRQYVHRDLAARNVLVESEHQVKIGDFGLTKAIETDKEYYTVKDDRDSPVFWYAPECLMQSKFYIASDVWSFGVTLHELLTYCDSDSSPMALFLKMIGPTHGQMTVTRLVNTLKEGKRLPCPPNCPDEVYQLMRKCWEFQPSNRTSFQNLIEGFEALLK
Protocol: as §1, §2, §3

Compound | IC50 [1] | IC50 [2] | IC50 [3]
Cc1cnc(Nc2ccc[nH]c2=O)nc1N[C@H]1CC[C@H](CC#N)CC1 [Example 13, 2-((1r,4r)-4-(5-Methyl-2-(2-oxo-1,2-dihydropyridin-3-ylamino)pyrimidin-4-ylamino)cyclohexyl)acetonitrile] | < 100 nM | < 100 nM | < 100 nM
C[C@H](Nc1cncc(Nc2ccc[nH]c2=O)n1)c1ccc(F)cn1 [Example 11, 3-[(6-{[(1S)-1-(5-Fluoropyridin-2-yl)ethyl]amino}pyrazin-2-yl)amino]pyridin-2(1H)-one] | < 100 nM | < 100 nM | < 100 nM
O=c1[nH]cccc1Nc1ncc(F)c(N[C@@H]2CCCN(c3nnc[nH]3)C2)n1 [Example 18, (R)-3-(4-(1-(4H-1,2,4-Triazol-3-yl)piperidin-3-ylamino)-5-fluoropyrimidin-2-ylamino) pyridin-2(1H)-one] | < 100 nM | < 100 nM | 100 to 1000 nM
C[C@H](Nc1cccc(Nc2ccc[nH]c2=O)n1)c1ccc(F)cn1 [Example 12] | < 100 nM | < 100 nM | 100 to 1000 nM
Cc1c(Nc2ccc[nH]c2=O)nc(N[C@@H]2CCCN(C(=O)CC#N)C2)nc1N1CCOCC1 [Example 22, 3-[(3R)-3-({5-methyl-4-morpholin-4-yl-6-[(2-oxo-1,2-dihydropyridin-3-yl)amino]pyrimidin-2-yl}amino)piperidin-1-yl]-3-oxopropanenitrile] | < 100 nM | < 100 nM | < 100 nM
COc1cnc(Nc2ccc[nH]c2=O)nc1N[C@@H](C)c1ccc(F)cn1 [Example 4, 3-[(4-{[(1S)-1-(5-fluoropyridin-2-yl)ethyl]amino}-5-methoxypyrimidin-2-yl)amino]pyridin-2(1H)-one] | < 100 nM | < 100 nM | < 100 nM
O=c1[nH]cccc1Nc1nccc(N[C@H]2CC[C@H](CS(=O)(=O)N3CCCC(O)C3)CC2)n1 (relative stereo) [Example 14, 3-({4-[(trans-4-{[(3-hydroxypiperidin-1-yl)sulfonyl]methyl}cyclohexyl)amino]pyrimidin-2-yl}amino)pyridin-2(1H)-one] | 100 to 1000 nM | < 100 nM | > 1000 nM
N#CCC(=O)N1CCC[C@@H](Nc2nc(Nc3ccc[nH]c3=O)nc(N3CCOCC3)c2F)C1 [Example 20, 3-[(3R)-3-({5-fluoro-6-morpholin-4-yl-2-[(2-oxo-1,2-dihydropyridin-3-yl)amino]pyrimidin-4-yl}amino)piperidin-1-yl]-3-oxopropanenitrile] | < 100 nM | < 100 nM | < 100 nM
Cc1cnc(Nc2cc(Cl)c[nH]c2=O)nc1N[C@@H](C)c1ccc(F)cn1 [Example 7, (S)-5-chloro-3-(4-(1-(5-fluoropyridin-2-yl)ethylamino)-5-methylpyrimidin-2-ylamino)pyridin-2(1H)-one] | < 100 nM | < 100 nM | < 100 nM
C[C@H](Nc1nc(Nc2ccc[nH]c2=O)ncc1C(N)=O)c1ccc(F)cn1 [Example 6, (S)-4-(1-(5-fluoropyridin-2-yl)ethylamino)-2-(2-oxo-1,2-dihydropyridin-3-ylamino) pyrimidine-5-carboxamide] | < 100 nM | < 100 nM | 100 to 1000 nM
N#CCC(=O)N1CCC[C@@H](Nc2nc(Nc3ccc[nH]c3=O)ncc2F)C1 [Example 17, (R)-3-(3-(5-Fluoro-2-(2-oxo-1,2-dihydropyridin-3-ylamino)pyrimidin-4-ylamino)piperidin-1-yl)-3-oxopropanenitrile] | < 100 nM | < 100 nM | < 100 nM
C[C@H](Nc1nc(Nc2ccc[nH]c2=O)ncc1O)c1ccc(F)cn1 [Example 5, 3-[(4-{[(1S)-1-(5-fluoropyridin-2-yl)ethyl]amino}-5-hydroxypyrimidin-2-yl)amino]pyridin-2(1H)-one] | < 100 nM | < 100 nM | < 100 nM
